Data set [1] concerns PAP (bPAP, mPAP). The data set can be described thus: Fluorometric acid phosphatase assay (DiFMUP, EnzChek). The data set is classed as biochemical, bovine; mouse. To be noted: L-tartrate 10 mM. As to the method: FIG. 3 is a set of bar graphs showing a fluorometric assay to quantify acid phosphatase activity. […] Right-hand Bar Graph: Mouse prostatic acid phosphatase (mPAP) assayed from transfected cell lysates. Activity is reduced by the PAP inhibitor L-tartrate (10 mM). These assays were performed following the manufacturers protocol (EnzChek Assay, Invitrogen, Carlsbad, Calif., United States of America) and quantified using a fluorescent microplate reader.
A way to quantify PAP activity was needed so that reproducible amounts of active PAP protein could be added to cultured cells or injected into live mice for the experiments described below. To accomplish this, two well-established methods were tested for measuring PAP activity: 1) a colorimetric assay using para-nitrophenyl phosphate (p-NPP) hydrolysis; and 2) a fluorometric assay using difluoro-4-methylumbelliferyl phosphate (DiFMUP) hydrolysis (commercially available as the EnzChek Acid Phosphatase kit from Invitrogen, Carlsbad, Calif., United States of America). Based on direct comparisons, it was determined that the fluorometric assay was much more sensitive than p-NPP for quantification of PAP activity. […] This fluorometric assay can thus be used to quantify phosphatase activity of pure PAP protein and PAP from cell lysates.

Data set [2] deals with Rat1 cells. Briefly: LPA-evoked calcium signaling (Fura2-AM) with LPA pre-incubated with bPAP. To be noted: 1 μM LPA incubated 1.5 hr at 37° C. with or without 0.2 mU bPAP, applied 1 minute. The format is cell-based, rat. As to the method: (“a” in FIG. 4). In parallel, a second tube was incubated containing 1 μM LPA (without bPAP) for 1.5 hr at 37° C. (“b” in FIG. 4). Rat1 cells were loaded with the calcium-sensitive dye Fura2-acetoxymethyl (AM) ester (Dong et al., 2001), and (LPA+bPAP) applied to these cells for 1 minute (see “a” in FIG. 4). Following a brief washout period, (LPA) was applied to the cells for 1 minute (see “b” in FIG. 4).

Data set [3] concerns wild-type C57BL/6 male mice. Briefly: LPA-evoked sensitization in vivo (i.t. LPA with or without bPAP). To be noted: 1 nmol LPA i.t., alone or incubated with 20 μU bPAP 10 min at 37° C.
Protocol: First, mechanical sensitivity was measured with an electronic von Frey apparatus (IITC). Then, thermal sensitivity was measured using the Hargreaves method (radiant heating of hindpaw; IITC Plantar Test Apparatus).
Data set [4] has as its system wild-type C57BL/6 male mice. The data set can be described thus: Noxious thermal sensitivity, Hargreaves method (paw withdrawal latency to radiant heat) after i.t. injection. The data set is classed as in vivo, mouse. As to the method:
Behavior. C57BL/6 male mice, 2-3 months old, were purchased from Jackson Laboratories (Bar Harbor, Maine, United States of America) for all behavioral experiments involving PAP protein injections. All mice were acclimated to the testing room, equipment and experimenter for one day before behavioral testing. The experimenter was blind to genotype and drug treatment during behavioral testing.
Thermal sensitivity was measured by heating one hindpaw with a Plantar Test apparatus (IITC) following the Hargreaves method (Hargreaves et al., 1988). The radiant heat source intensity was calibrated so that a paw withdrawal reflex was evoked in ˜10 seconds, on average, in wild-type C57BL/6 mice. Cutoff time was 20 s. One measurement was taken from each paw per day to determine paw withdrawal latency. To perform the tail immersion assay, mice were gently restrained in a towel and the distal one-third of the tail was immersed in 46.5° C. water. Latency to withdrawal the tail was measured once per mouse. Mechanical sensitivity was measured using semi-rigid tips attached to an Electronic von Frey apparatus (IITC) as described elsewhere (Cunha et al., 2004; Inoue et al., 2004). Three measurements were taken from each paw (separated at 5 min. intervals) then averaged to determine paw withdrawal threshold in grams.
Intrathecal injections. hPAP, bPAP and vehicle controls were injected into the lumbar region of unanesthetized mice as described (Fairbanks, 2003).
Intrathecal injection was chosen because PAP protein is unlikely to reach spinal cord tissue if injected intraperitoneally.

Data set [5] concerns wild-type C57BL/6 male mice. The data set is classed as in vivo, mouse. An excerpt:
Signs of immune and microglial activation can be monitored using molecular markers.

Data set [6] addresses T1, A1-adenosine receptor (A1R) (Mus musculus, UniProt Q60612).
T1 construct: endogenous in cells; host or cells: wild-type C57BL/6 mice, in vivo (CPX 1 mg/kg i.p.)
T1 sequence (Q60612 1-326): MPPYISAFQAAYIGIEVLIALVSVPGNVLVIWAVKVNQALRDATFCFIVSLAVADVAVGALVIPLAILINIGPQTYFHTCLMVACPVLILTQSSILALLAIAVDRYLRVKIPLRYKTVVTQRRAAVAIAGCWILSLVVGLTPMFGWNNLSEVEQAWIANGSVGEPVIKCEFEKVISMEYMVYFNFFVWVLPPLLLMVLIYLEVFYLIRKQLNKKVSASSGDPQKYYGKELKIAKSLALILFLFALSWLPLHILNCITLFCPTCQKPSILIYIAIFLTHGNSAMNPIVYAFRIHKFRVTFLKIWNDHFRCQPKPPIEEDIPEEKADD
The data set can be described thus: Antagonism of hPAP anti-nociception by the A1R antagonist CPX, CFA model. The data set is classed as in vivo. As to the method:
Wild-type mice were tested for noxious thermal (FIG. 29A) and mechanical (FIG. 29B) sensitivity before (baseline, BL) and following injection of Complete Freund's Adjuvant (CFA-arrow) into one hindpaw (inflamed paw, open circles or dark squares). The non-inflamed hindpaw served as control (shaded circles or squares). All mice were injected with active hPAP (hPAP-arrow; 250 mU, i.t.). Two days later, half the mice were injected with vehicle (CPXN-arrow, circles; intraperitoneal (i.p.); 1 h before behavioral measurements) while the other half were injected with 8-cyclopentyl-1,3-dipropylxanthine (CPX/V-arrow, squares; 1 mg/kg i.p.; 1 h before behavioral measurements). […] All data are presented as means±SEM.
The responses of wild-type and A1R^−/− mice were also tested using the CFA chronic inflammatory pain model and the SNI neuropathic pain model.

Entries after “also recorded” stand apart in the source; their conditions may differ.

For the compound `O=C(O)[C@H](O)[C@@H](O)C(=O)O` [L-tartrate], the “effect on PAP phosphatase activity” value in data set [1] was “inhibited; also recorded: reduced”.

Turning to lysophosphatidic acid [LPA], the “change of intracellular calcium levels” value in data set [2] was “dramatically changed”. Further, in data set [3], the “behavioral sensitization (mechanical allodynia, thermal hyperalgesia)” value is “caused long-lasting mechanical allodynia and thermal hyperalgesia”.

In the case of `OC[C@H]1O[C@@H](n2cnc3c(NC4CCCC4)ncnc32)[C@H](O)[C@@H]1O` [CPA, N^6-cyclopentyladenosine], the “duration of effect on paw withdrawal latency, in words” value in data set [4] (i.t., compared with hPAP) is reported as “short-term effects (lasting hours not days)”. In addition, the “effect on noxious thermal sensitivity / paw withdrawal latency” value in data set [4] (uninjured wild-type mice, i.t. injection (bPAP 20 μU; hPAP 1.3 mg/mL or 250 mU; ALP 25,000 mU)) was “dose-dependent increases in paw withdrawal latency”. Besides, the motor paralysis entry in data set [5] (two highest i.t. doses (dose range 0.0005 nmol-5 nmol)) is “transient paralysis; also recorded: fore- and hindlimb paralysis”.

For `CCCn1c(=O)c2[nH]c(C3CCCC3)nc2n(CCC)c1=O` [CPX, 8-cyclopentyl-1,3-dipropylxanthine], the “effect on thermal or mechanical sensitivity after hPAP effects wore off” value in data set [6] (1 mg/kg i.p. on day 9) is “did not affect thermal or mechanical sensitivity”. The “effect on anti-nociceptive effects of hPAP” value in data set [6] (1 mg/kg i.p., two days after hPAP 250 mU i.t., 1 h before behavioral measurements) is “transiently reversed the anti-nociceptive effects of hPAP in control and inflamed hindpaws; also recorded: transiently antagonized all anti-nociceptive effects of hPAP”.

Turning to `CN1CC[C@]23c4c5ccc(O)c4O[C@H]2[C@@H](O)C=C[C@H]3[C@H]1C5.O=S(=O)(O)O` [morphine, morphine sulfate], in data set [4] (single i.t. injection, highest doses), the “increase in paw withdrawal latency above baseline” value is 62.2%±9.9%. Further, in data set [5] (mouse, in vivo), the side effects result is recorded as “Side-effects were observed at the two highest doses”.

The values are drawn from patent publication US20100266569A1, “PROSTATIC ACID PHOSPHATASE FOR THE TREATMENT OF PAIN” (priority 2007, published 2010).
